Data from patent US20260062426A1, “CYCLIN DEPENDENT KINASE DEGRADERS AND METHODS OF USE THEREOF” (Differentiated Therapeutics Inc, priority 2023, published 2026).

Experiments:
Format in all cases: cell-based
[1] = biological target: T1, CDK9 (Homo sapiens, UniProt P50750); experiment: CDK9 HIBIT PQ (protein quantification), degradation; conditions: for DC50: PQ = Protein Quantification
T1 construct: host or cells: HEK293
Method in brief: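 HEK293 cells bearing HiBiT-tagged CDK9 were cultured in DMEM with 10% FBS, plated into 384-well plates at 1.6×10^5 cells/well in 50 uL, and left overnight at 37° C and 5% CO2. A HiBiT assay measured CDK9 protein after compound treatment, with 0.1% DMSO-treated cells as the high control and culture medium alone as the low control. These readings gave the maximal degradation, Dmax and DC50.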

[2] = biological target: T2, CDK2 (Homo sapiens, UniProt P24941); experiment: CDK2 HIBIT PQ (protein quantification), degradation; conditions: for CDK2 HIBIT PQ Max (%): Max = Maximum; for DC50: PQ = Protein Quantification
T2 construct: host or cells: HEK293
Method in brief: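 DC50 and maximal degradation were derived from a HiBiT lytic readout in HEK293 cells carrying HiBiT-tagged CDK2. Cells were seeded in 384-well plates at 1.6×10^5 cells/well in 50 uL of DMEM with 10% FBS, incubated overnight at 37° C and 5% CO2, treated with compound for 6 hours, and then given 20 μL of HiBiT reagent with 20 minutes of shaking at room temperature before an EnVision reading. Wells with 0.1% DMSO served as the high control and wells with medium only as the low control.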

[3] = biological target: T3, CCNE1 (Homo sapiens, UniProt P24864+P24941); experiment: CCNE1 HIBIT PQ (protein quantification), degradation; conditions: for CCNE1 HIBIT PQ Max (%): Max = Maximum; for DC50: PQ = Protein Quantification
T3 construct: host or cells: HEK293
Method in brief: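 HEK293 cells with HiBiT-tagged CCNE1 were cultured in EMEM containing 10% FBS, plated at 1.6×10⁵ cells/well in 50 uL in 384-well plates and left overnight at 37° C with 5% CO₂. After 6 hours of compound exposure, a HiBiT assay measured CCNE1 protein, with 0.1% DMSO-treated cells as the high control and medium alone as the low control. DC50 and maximal degradation came from these readings.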

T1 sequence (P50750 whole entry): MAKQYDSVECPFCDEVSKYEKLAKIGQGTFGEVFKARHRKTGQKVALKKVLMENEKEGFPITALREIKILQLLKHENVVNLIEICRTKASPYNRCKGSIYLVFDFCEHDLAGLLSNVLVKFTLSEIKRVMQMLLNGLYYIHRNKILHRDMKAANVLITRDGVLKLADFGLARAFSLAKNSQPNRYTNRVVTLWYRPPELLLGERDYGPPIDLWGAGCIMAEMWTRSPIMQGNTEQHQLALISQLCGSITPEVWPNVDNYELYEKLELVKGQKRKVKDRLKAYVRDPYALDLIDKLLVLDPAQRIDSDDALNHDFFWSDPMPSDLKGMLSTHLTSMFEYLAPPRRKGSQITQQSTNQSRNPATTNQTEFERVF

Structure (SMILES)	Dmax ([1]; Max = Maximum) [%]	DC50 [1] [nM]	CDK2 HIBIT PQ Max (%) [2] [%]	DC50 [2] [nM]	CCNE1 HIBIT PQ Max (%) [3] [%]	DC50 [3] [nM]	CDK9 HIBIT PQ Max (%) ([1]; Max = Maximum)
Cc1cc(Nc2nc3c(OC(C)C)c(-c4cn[nH]c4)ncn3n2)c(F)cc1S(=O)(=O)N(C)CCCN1CCC(c2ccc3c(c2)n(C)c(=O)n3C2CCC(=O)NC2=O)CC1 (racemic) [Compound 59]	68	1.34	86	0.1	66	0.4	–
CC(C)Oc1c(-c2cn[nH]c2)ncn2nc(Nc3c(F)cc(S(=O)(=O)N(C)CCCN4CCC(c5ccc6c(c5)n(C)c(=O)n6C5CCC(=O)NC5=O)CC4)cc3F)nc12 (racemic) [Compound 58]	86	1.51	94	0.1	86	0.39	–
Cc1cc(S(=O)(=O)N(C)CCCN2CCC(c3ccc4c(c3)n(C)c(=O)n4C3CCC(=O)NC3=O)CC2)cc(F)c1Nc1nc2c(OC(C)C)c(-c3cn[nH]c3)ncn2n1 (racemic) [Compound 57]	82	2.25	90	0.3	76	0.62	–
CC(C)Oc1c(-c2cn[nH]c2)ncn2nc(Nc3ccc(S(=O)(=O)c4cccc(CN5CCN(c6ccc7c(N8CCC(=O)NC8=O)nn(C)c7c6)CC5)c4)cc3F)nc12 [Compound 38]	63	24	96	2.3	55	5.76	–
CC(C)Oc1c(-c2cn[nH]c2)ncn2nc(Nc3ccc(S(=O)(=O)N(C)CCCN4CCC(c5ccc6c(c5)n(C)c(=O)n6[C@H]5CCC(=O)NC5=O)CC4)cc3F)nc12 (racemic) [Compound 16]	94	0.52	91	< 0.152	79	0.21	–
CC(C)Oc1c(-c2cn[nH]c2)ncn2nc(Nc3ccc(S(=O)(=O)N4CCC[C@H](CN5CC[C@H](c6ccc7c(N8CCC(=O)NC8=O)nn(C)c7c6)CC5(C)C)C4)cc3F)nc12 (relative stereo) [Compound 97, rel-1-(6-((R)-1-(((S)-1-((3-fluoro-4-((8-isopropoxy-7-(1H-pyrazol-4-yl)-[1,2,4]triazolo[1,5-c]pyrimidin-2-yl)amino)phenyl)sulfonyl)piperidin-3-yl)methyl)-2,2-dimethylpiperidin-4-yl)-1-methyl-1H-indazol-3-yl)dihydropyrimidine-2,4(1H,3H)-dione]	19	–	68	0.6	41	–	–
CC(C)Oc1c(-c2cn[nH]c2)ncn2nc(Nc3ccc(S(=O)(=O)c4cccc(CN5CCN(c6ccc7c(N8CCC(=O)NC8=O)nn(C)c7c6)C(C(C)C)C5)c4)cc3F)nc12 (racemic) [Compound 43, rac-1-{6-[(2R)-4-{[3-(3-fluoro-4-{[8-isopropoxy-7-(1H-pyrazol-4-yl)-[1,2, 4]triazolo[1,5-c]pyrimidin-2-yl]amino}benzenesulfonyl)phenyl]methyl}-2-isopropylpiperazin-1-yl]-1-methylindazol-3-yl}-1,3-diazinane-2,4-dione]	75	307	94	14.5	76	96.5	–
CC(C)Oc1c(-c2cn[nH]c2)ncn2nc(Nc3ccc(S(=O)(=O)N4CCCC(CN5CCC(c6ccc7c(N8CCC(=O)NC8=O)nn(C)c7c6)CC5(C)C)C4)cc3F)nc12 (stereo not drawn) [Compound 93, 1-(6-(1-((1-((3-fluoro-4-((8-isopropoxy-7-(1H-pyrazol-4-yl)-[1,2,4]triazolo[1,5-c]pyrimidin-2-yl)amino)phenyl)sulfonyl)piperidin-3-yl)methyl)-2,2-dimethylpiperidin-4-yl)-1-methyl-1H-indazol-3-yl)dihydropyrimidine-2,4(1H,3H)-dione]	56	5.87	77	0.7	56	1.22	–
CC(C)Oc1c(-c2cn[nH]c2)ncn2nc(N[C@H]3CCN(S(=O)(=O)N(C)CCCN4CCC(c5cccc6c5n(C)c(=O)n6C5CCC(=O)NC5=O)CC4)C[C@H]3C)nc12 (stereo partly drawn) [Compound 7]	91	2.13	92	1.07	96	0.76	–
CC(C)Oc1c(-c2cn[nH]c2)ncn2nc(Nc3ccc(S(=O)(=O)N4CCCC(CN5CCC(c6ccc7c(N8CCC(=O)NC8=O)nn(C)c7c6)CC5)C4)cc3F)nc12 (racemic) [Compound 87, rac-(R)-1-(6-(1-((1-((3-fluoro-4-((8-isopropoxy-7-(1H-pyrazol-4-yl)-[1,2, 4]triazolo[1,5-c]pyrimidin-2-yl)amino)phenyl)sulfonyl)piperidin-3-yl)methyl)piperidin-4-yl)-1-methyl-1H-indazol-3-yl)dihydropyrimidine-2,4(1H,3H)-dione]	72	3.32	90	0.4	79	1.4	–
CC(C)Oc1c(-c2cn[nH]c2)ncn2nc(Nc3ccc(S(=O)(=O)c4cccc(CN5CC6CC5CN6c5ccc6c(N7CCC(=O)NC7=O)nn(C)c6c5)c4)cc3F)nc12 (stereo not drawn) [Compound 48]	2	–	79	3.1	21	–	–
CC(C)Oc1c(-c2cn[nH]c2)ncn2nc(Nc3cc(F)c(S(=O)(=O)N(C)CCCN4CCC(c5ccc6c(c5)n(C)c(=O)n6C5CCC(=O)NC5=O)CC4)cc3F)nc12 (racemic) [Compound 60]	75	1.52	93	–	74	0.45	–
CC(C)Oc1c(-c2cn[nH]c2)ncn2nc(Nc3ccc(S(=O)(=O)N(C)CCCN4CC5CC4CN5c4ccc5c(c4)n(C)c(=O)n5C4CCC(=O)NC4=O)cc3F)nc12 (stereo not drawn) [Compound 69]	6	–	71	0.5	18	–	–
CC(C)Oc1c(-c2cn[nH]c2)ncn2nc(Nc3ccc(S(=O)(=O)c4cccc(C(C)N5CCC(c6ccc7c(N8CCC(=O)NC8=O)nn(C)c7c6)CC5)c4)cc3F)nc12 (single isomer, unassigned) [Compound 100]	86	12.4	90	2.9	80	14.3	–
CC(C)Oc1c(-c2cn[nH]c2)ncn2nc(Nc3ccc(S(=O)(=O)c4cccc(CN5CCN(c6ccc7c(N8CCC(=O)NC8=O)nn(C)c7c6)CC5C)c4)cc3F)nc12 (racemic) [Compound 39]	60	58.5	96	3.3	67	14.9	–
CC(C)Oc1c(-c2cn[nH]c2)ncn2nc(Nc3ccc(S(=O)(=O)N4CCC[C@H](CN5CC[C@H](c6ccc7c(N8CCC(=O)NC8=O)nn(C)c7c6)CC5(C)C)C4)cc3F)nc12 (single isomer, unassigned) [Compound 104]	13	–	75	1	48	–	–
CC(C)Oc1c(-c2cn[nH]c2)ncn2nc(N[C@H]3CCN(S(=O)(=O)c4cccc(CN5CCN(c6ccc7c(N8CCC(=O)NC8=O)nn(C)c7c6)C(C)C5)c4)C[C@H]3C)nc12 (stereo partly drawn) [Compound 49]	104	11.6	98	2.2	96	9.43	–
CC(C)Oc1c(-c2cn[nH]c2)ncn2nc(Nc3ccc(S(=O)(=O)c4cccc(C(C)N5CCN(c6ccc7c(N8CCC(=O)NC8=O)nn(C)c7c6)CC5)c4)cc3F)nc12 (single isomer, unassigned) [Compound 99]	–	37.3	94	3	52	10.2	64
